Data on 11 compounds can be found in PubChem BioAssay (NCI).

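Values below derive from 48-hour exposures of cells grown in 96-well plates, with endpoints linearly interpolated between the two concentrations bracketing the appropriate inhibition level. Here, GI50 denotes the concentration required for 50% inhibition of growth. TGI: concentration producing complete growth inhibition.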

What all share (assay): inhibition of tumour cell growth, NCI panel, 48 h
For assay [1], the system named is NCI-H522 lung.
For assay [2], the system named is UACC-62 melanoma.
In assay [3] the test system is RXF 393 renal.
Assay [4] has as its system HT29 colon.
The subject of assay [5] is M14 melanoma.
Assay [6] relates to MDA-MB-231 breast.
Assay [7] relates to KM12 colon.
For assay [8], the system named is SW-620 colon.
The test system of assay [9] is SNB-75 CNS.
For assay [10], the system named is A498 renal.

For the compound `CC(=O)Oc1ccc2c(c1)[C@@]1(C)CCCC(C)(C)[C@@H]1CC2`, the GI50 in [1] is 24.2 µM; in assay [2], 17.6 µM; in assay [3] it was 41.2 µM; in assay [4], 31.7 µM; in assay [5], 18.2 µM; in assay [6] it was 17.8 µM. Also, the results for the GI50 in assay [7] and in assay [8] were 19.2 µM and 28.2 µM, respectively. The TGI is 69.2 µM in assay [1]; 32.8 µM in assay [2]; 86.3 µM in assay [3]; above 100 µM in [4]; 33.7 µM in [5]; 34.2 µM in [6]. Besides, the results for the TGI in [7] and in assay [8] were 45 µM and above 100 µM, respectively.

Regarding `CO[C@@H]1CCN(c2nccc(Nc3cc4c(C(C)C)ccc(N5CC(CS(C)(=O)=O)[C@H]5C)c4cn3)n2)C[C@@H]1F` (some centres undefined), the GI50 in [1] was 1.69 µM; in assay [9], 5.85 µM; in assay [3], 2.96 µM; in assay [4] it was 3.1 µM; in [5] it was 5.93 µM; in assay [6], 8.77 µM. Further, the values for the GI50 in [7], in assay [10] and in [8] were 3.14 µM, 10.1 µM and 5.13 µM, respectively. For the same compound, the TGI is 8.25 µM in assay [1]; above 100 µM in assay [9]; 7.65 µM in [3]; 12.1 µM in assay [4]; above 100 µM in assay [5]; above 100 µM in assay [6]. For the same compound, the TGI was above 100 µM in assay [7], 44.7 µM in [10] and above 100 µM in assay [8].

Regarding `[N-]=[N+]=NCCCn1c2c(c3ccc([N+](=O)[O-])cc3c1=O)C(=O)c1cc3c(cc1-2)OCO3`, the GI50 in [1] was 0.109 µM; in assay [2], below 0.0211 µM; in [3], 0.39 µM; in assay [5], below 0.01 µM; in [6] it was 0.828 µM; in [8], below 0.0285 µM. Besides, the TGI in assay [1] was 0.844 µM; in [9], above 100 µM; in assay [2], 0.782 µM; in assay [3] it was 40.3 µM; in assay [4] it was above 100 µM; in assay [5] it was below 0.01 µM. The TGI in assay [6] is 12.3 µM; in assay [7], 5.01 µM; in assay [8] it was above 100 µM.

Consider `CCCCCCCCOCC(O)CO` (centres undefined), for which the TGI in assay [1], in assay [9], in assay [2], in assay [3], in assay [4] and in [5] was above 100 µM each time. Further, the TGI in assay [7], in assay [10] and in [8] was above 100 µM each time.

In the case of `Cc1cc(N(CCC#N)CCC#N)ccc1N=Nc1cc(Cl)ccc1Cl`, the TGI in [1] is 3.41 µM; in [9], 28.3 µM; in [2] it was 21.7 µM; in assay [3], 23 µM; in [4], 13.1 µM; in [5] it was 11.4 µM. Also, the TGI in [7] came to 30 µM; in assay [10], 34.7 µM; in [8] it was 6.5 µM.

With `CC1=C(C(=O)NCc2ccccc2)C(c2ccc(Cl)c(Cl)c2)C(C(=O)NCc2ccccc2)=C(C)N1`, the TGI in assay [1], in [9], in [2], in [3], in [4] and in assay [5] was above 100 µM in each case. The TGI in assay [7], in [10] and in assay [8] was above 100 µM each time.

Turning to `Cc1ccc(S(=O)(=O)N2CCCSCCSCCCN(S(=O)(=O)c3ccc(C)cc3)CC2)cc1`, the TGI in [9], in [2], in assay [3], in assay [4], in assay [5] and in assay [6] was above 100 µM in each case. The TGI in assay [7], in assay [10] and in assay [8] was above 100 µM in each case.

With `COc1cccc(-c2nn(-c3ccccc3)cc2-c2ccnc(NCCCNC(=O)c3cccc(C(F)(F)F)c3)c2)c1`, the GI50 in assay [1] was 2.58 µM; in assay [9], 17 µM; in assay [2], 3.58 µM; in [3], 2.2 µM; in assay [4] it was 3.61 µM; in assay [5], 4.63 µM. Besides, the GI50 in assay [6] was 3.86 µM; in assay [7], 3.64 µM; in [8], 4.35 µM. The TGI is 12.2 µM in assay [1]; 57.8 µM in [9]; 16.2 µM in assay [2]; 7.52 µM in assay [3]; 13.6 µM in assay [4]; 30.3 µM in assay [5]. Further, the TGI was found to be 25.7 µM in [6], 19.8 µM in assay [7] and 31.5 µM in assay [8].

In the case of `N#Cc1cnc2cc(OC[C@@H](O)CO)c(NC(=O)C3CCCC3)cc2c1Nc1ccc(OCc2cccc(F)c2)c(Cl)c1`, the GI50 in assay [1] is 0.568 µM; in [9], 2.19 µM; in assay [3], 1.29 µM; in assay [4], 1.39 µM; in assay [5], 0.765 µM; in assay [6], 0.74 µM. In addition, the GI50 was 3.84 µM in assay [7], 2.78 µM in assay [10] and 1.53 µM in [8]. Further, the TGI was 1.34 µM in assay [1]; above 50 µM in assay [9]; 3.41 µM in assay [3]; 3.84 µM in [4]; 1.61 µM in assay [5]; 1.82 µM in assay [6]. Further, the TGI in [7] turned out to be 14.2 µM; in [10], 13.4 µM; in [8], 6.78 µM.

Take `O=c1[nH]c2cc([N+](=O)[O-])ccc2nc1/C(=N/Nc1ccccc1)C(O)c1ccco1` (centres undefined): the TGI in [1], in assay [9], in assay [2], in assay [3], in assay [4] and in [5] was above 100 µM each time. In addition, the TGI in assay [7], in assay [10] and in assay [8] was above 100 µM each time.

In the case of `N#Cc1ccc(/C=C(/C(=O)c2ccccc2)c2ccccc2)cc1`, the TGI in [1] is 29.2 µM; in [9], above 57.2 µM; in assay [2], 31.2 µM; in assay [3] it was 39.9 µM; in [4] it was 22.1 µM; in assay [5] it was 27.8 µM. Further, the TGI in [7] was 10.1 µM; in assay [10], 40 µM; in [8] it was 7.31 µM.
